Test results as given in patent US9637523B2 (priority 2012, dated 2017).
Entries after “also recorded” stand apart in the source; their conditions may differ.

Experiments:
avian IAV FPV = format: cell-based
human IAV PR8 = format: cell-based
[1] = system: polymerase subunits PB1, PB2, PA and NP of the avian IAV FPV-Rostock; format: cell-based, A/FPV/Rostock/34 (H7N1)
[2] = system: PB1, NS1, NP and M1 of IAV; format: cell-based

For Cc1ccc(NC(=O)c2ccc(CN3CCN(C)CC3)cc2)cc1Nc1nccc(-c2cccnc2)n1 [Imatinib], the “replication (progeny virus yields) of avian IAV FPV” value (avian IAV FPV) was “interferes with replication properties of the avian IAV FPV in a concentration dependent manner; also recorded: only efficient upon low dose infection”, the “replication (progeny virus yields) of human IAV PR8” value (human IAV PR8) was “absolutely independent of the tyrosine kinase activity of c-Abl” and the “viral polymerase activity (luciferase)” value [1] was “neither detect an impact”. The viral protein expression [2] was “neither detect an impact”.
